Assay results as given in the supplement of paper PMC10307832.

Columns and labels:
Assay in all cases: relative viability (nuclei count vs DMSO), 5 days (fraction); higher = more cells survive
[1] = compound: CC1=CN2C(=O)C=C(N=C2C(=C1)C(C)NC3=CC=CC=C3)N4CCOCC4 [TGX 221] + COc1cccc2cc(-c3nc([C@H]4CC[C@H](C(=O)O)CC4)n4ncnc(N)c34)[nH]c12 [OSI-027] (partner 0.5 µM)
How it was run: (§1)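 Lung cancer cell lines in 1536-well plates got either a single drug or a fixed anchor-drug dose together with five library-drug doses (not always all listed) in √10 steps, by pin tool, on the day after seeding. Nuclei were counted after 5 days, and relative viability is the treated-to-vehicle ratio of nuclei counts. Values are medians of duplicate plates.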

[2] = compound: C1=CC=C(C(=C1)C2=CC=C(C=C2)C3=CSC4=C3C(=C(C(=O)N4)C#N)O)O + O=C(CCCCCCC(=O)Nc1ccccc1)NO [Vorinostat] (partner 1 µM)
How it was run: as §1

[3] = compound: O=C(CCCCCCNC(=O)c1cnc(N(c2ccccc2)c2ccccc2)nc1)NO [Ricolinostat] + Cc1nc(NC(=O)N2CCC[C@H]2C(N)=O)sc1-c1ccnc(C(C)(C)C(F)(F)F)c1 [Alpelisib] (partner 2 µM)
How it was run: as §1

[4] = compound: C1=CC=C(C(=C1)C2=CC=C(C=C2)C3=CSC4=C3C(=C(C(=O)N4)C#N)O)O + COc1cccc2cc(-c3nc([C@H]4CC[C@H](C(=O)O)CC4)n4ncnc(N)c34)[nH]c12 [OSI-027] (partner 0.5 µM)
How it was run: as §1

Cell Line	relative viability ([1]; first compound 0.08 µM)	relative viability ([1]; first compound 0.253 µM)	relative viability ([1]; first compound 0.8 µM)	relative viability ([1]; first compound 2.53 µM)	relative viability ([1]; first compound 8 µM)	relative viability ([2]; first compound 0.08 µM)	relative viability ([2]; first compound 0.253 µM)	relative viability ([2]; first compound 0.8 µM)	relative viability ([2]; first compound 2.53 µM)	relative viability ([2]; first compound 8 µM)	relative viability ([3]; first compound 0.08 µM)	relative viability ([3]; first compound 0.253 µM)	relative viability ([3]; first compound 0.8 µM)	relative viability ([3]; first compound 2.53 µM)	relative viability ([4]; first compound 0.08 µM)	relative viability ([4]; first compound 0.253 µM)	relative viability ([4]; first compound 0.8 µM)	relative viability ([4]; first compound 2.53 µM)	relative viability ([4]; first compound 8 µM)
201T	0.547	0.726	1.08	0.708	0.696	0.874	0.952	0.811	1	0.902	0.905	0.946	1.03	0.887	0.709	0.665	0.795	0.699	0.531
A549											0.537	0.805	0.663	0.631					
A-427	0.53	0.491	0.506	0.473	0.448	0.923	0.861	0.864	0.904	0.859	0.927	1.07	1.09	0.983	0.363	0.505	0.514	0.432	0.452
ABC-1	0.518	0.505	0.593	0.432	0.406	0.813	0.921	1.03	0.956	0.768	0.955	0.933	1.11	0.648	0.37	0.477	0.478	0.424	0.257
BEN	0.293	0.271	0.276	0.287	0.296	0.567	0.678	0.59	0.531	0.573	0.951	0.901	0.978	0.655	0.305	0.303	0.497	0.313	0.286
CAL-12T	0.604	0.471	0.821	0.486	0.567	0.65	0.817	0.884	0.743	0.643	1.1	0.998	1.15	0.912	0.589	1.14	0.591	0.59	0.431
COR-L23	0.713	0.777	0.815	0.835	0.715	0.404	0.477	0.409	0.38	0.379	0.651	0.689	0.571	0.407	0.614	0.715	0.534	1.11	0.723
COR-L 105	0.793	0.612	0.759	1.03	0.627	0.763	0.807	0.805	1.01	0.706	0.698	0.98	0.934	1.25	0.72	0.737	0.734	0.628	0.602
Calu-6											0.91	0.947	1.01	0.878					
ChaGo-K-1	0.529	0.547	0.581	0.474	0.64	0.733	0.821	0.801	0.822	0.683					0.475	0.569	0.485	0.571	0.528
EBC-1											0.57	0.737	0.699	0.414					
EKVX	0.697	0.708	0.698	0.687	0.672	0.672	1.01	0.758	0.653	0.561		0.883	0.882	0.942	0.777	0.775	0.71	0.724	0.509
EMC-BAC-2	0.376	0.443	0.348	0.359	0.366	0.463		0.331	0.435	0.362	0.644	0.669	0.768	0.816	0.41	0.411	0.312	0.355	0.357
EPLC-272H	0.273	0.28	0.244	0.293	0.316	0.466	0.387	0.357	0.401	0.42		0.891	1.04	0.7	0.253	0.286	0.263	0.27	0.289
H3255	0.535	0.593	0.506	0.539	0.571	0.823	0.863		0.886	0.784	0.517	0.651	0.678	0.661	0.684	0.599	0.671	0.553	0.532
HARA	0.447	0.493	0.526	0.501	0.471		0.792	0.701		0.371	0.545	0.79	0.693	0.618	0.386	0.661	0.524	0.428	0.297
HCC-15	0.672	0.713	0.754	0.592	0.681	0.861	0.954	0.869	0.905	0.725	0.753	0.875	0.834	0.894	0.667	0.735	0.699	0.704	0.571
HCC-44		0.417	0.51	0.543	0.41	1.15	1.12	1.13	1.08	1.06	0.694	0.743	0.725	0.612		0.588	0.518	0.558	0.523
HCC-78	0.295	0.385	0.33	0.306	0.326	0.514	0.678	0.448	0.523	0.352		0.32	0.291	0.192	0.42	0.405	0.397	0.381	0.326
HCC-366	0.865	0.832	0.922	0.567	0.755		0.35	0.348	0.309	0.315	0.223	0.407	0.398	0.433	1.32	1.18	0.875	0.945	0.719
